Source: article PMC3020970, “K70Q Adds High-Level Tenofovir Resistance to “Q151M Complex” HIV Reverse Transcriptase through the Enhanced Discrimination Mechanism” (PLoS ONE, 2011)
Where a name gives a salt, the structure may show the parent alone.

Assays:
Format in all cases: cell-based
[1] = tested on: HIV-1 clinical isolate 1 (Q151Mc-containing); experiment: Single-cycle drug susceptibility assay (MAGIC-5 cells), clinical isolate 1; conditions: Human immunodeficiency virus 1; clinical isolate 1, MAGIC-5 cells
Procedure: (§1) HIV was isolated from fresh plasma immediately after collection of clinical samples from study participants at the outpatient clinic of the AIDS Clinical Center (ACC), International Medical Center of Japan. The Institutional Review Board approved this study (IMCJ-H13-80) and a written consent was obtained from all participants.
(§2) Susceptibilities to various RT inhibitors were determined using the MAGIC-5 cells which are HeLa cells stably transfected with a β-galactosidase gene under the control of an HIV long terminal repeat promoter, and with vectors that express the CD4 receptor and the CCR5 co-receptor under the control of the CMV promoter as described previously. Briefly, MAGIC-5 cells were infected with diluted virus stock (100 blue forming units) in the presence of increasing concentrations of RT inhibitors, cultured for 48 h, fixed, and stained with X-Gal (5-bromo-4-chloro-3-indolyl-β-D-galacto-pyranoside). The stained cells were counted under a light microscope.

[2] = tested on: HIV-1 clinical isolate 2 (Q151Mc + K70Q); experiment: Single-cycle drug susceptibility assay (MAGIC-5 cells), clinical isolate 2; conditions: Human immunodeficiency virus 1; clinical isolate 2, MAGIC-5 cells
Procedure: as §1, §2

HIV-1 NL4-3 strain (WT) = experiment: microbe, parasite or virus in culture; conditions: Human immunodeficiency virus 1, NL43; WT, MAGIC-5 cells, Table S1; read-out: EC50
Procedure: as §2

HIV-1 WT = experiment: Single-cycle drug susceptibility assay (MAGIC-5 cells), recombinant WT clone; conditions: Human immunodeficiency virus 1, Table S2
Procedure: (§3) The NL4-3-based molecular clone was constructed by replacing the pol-coding region with the HIV-1 BH10 strain. […] Each molecular clone was transfected into COS-7 cells. Cells were grown for 48 h, and culture supernatants were harvested and stored at −80°C until use.
as §2

HIV-1 Q151Mc/K70G = experiment: Single-cycle drug susceptibility assay (MAGIC-5 cells)
Procedure: as §3, §2

HIV-1 Q151Mc/K70T = experiment: as above
Procedure: as §3, §2

HIV-1 Q151Mc/K70R = experiment: as above
Procedure: as §3, §2

HIV-1 Q151Mc = experiment: as above; conditions: Human immunodeficiency virus 1, MAGIC-5
Procedure: as §3, §2

HIV-1 K70Q = experiment: as above; conditions: Human immunodeficiency virus 1, MAGIC-5; K70Q
Procedure: as §3, §2

HIV-1 K70N = experiment: as above
Procedure: as §3, §2

HIV-1 Q151Mc/K70N = experiment: as above
Procedure: as §3, §2

HIV-1 K70T = experiment: as above
Procedure: as §3, §2

HIV-1 K70R = experiment: as above
Procedure: as §3, §2

HIV-1 Q151Mc/K70Q = experiment: as above
Procedure: as §3, §2

HIV-1 K70E = experiment: as above
Procedure: as §3, §2

HIV-1 Q151Mc/K70E = experiment: as above
Procedure: as §3, §2

HIV-1 K70G = experiment: as above
Procedure: as §3, §2

Structure (SMILES): Cc1ccnc2c1NC(=O)c1cccnc1N2C1CC1 [NVP, nevirapine]
- EC50 [1]: > 10000 nM
- EC50 [2]: > 10000 nM
- EC50 (HIV-1 NL4-3 strain (WT)): 50 ± 4 nM

Structure (SMILES): CC(C)OC(=O)OCOP(=O)(CO[C@H](C)Cn1cnc2c(N)ncnc21)OCOC(=O)OC(C)C [TFV-DF, tenofovir disoproxil fumarate]
- EC50 [1]: 40 ± 10 nM
- EC50 [2]: 120 ± 20 nM
- EC50 (HIV-1 NL4-3 strain (WT)): 20 ± 3 nM
- EC50 (HIV-1 WT): 20 ± 4 nM
- EC50 (HIV-1 Q151Mc/K70G; Human immunodeficiency virus 1, MAGIC-5, Q151Mc/K70G): 40 ± 2 nM
- Fold increase in EC50 compared to HIV-1 Q151Mc (HIV-1 Q151Mc/K70G; Q151Mc/K70G vs Q151Mc): (1) fold
- EC50 (HIV-1 Q151Mc/K70T; Human immunodeficiency virus 1, MAGIC-5, Q151Mc/K70T): 50 ± 1 nM
- Fold increase in EC50 compared to HIV-1 Q151Mc (HIV-1 Q151Mc/K70T; Q151Mc/K70T vs Q151Mc): (1.3) fold
- EC50 (HIV-1 Q151Mc/K70R; Human immunodeficiency virus 1, MAGIC-5, Q151Mc/K70R): 30 ± 2 nM
- Fold increase in EC50 compared to HIV-1 Q151Mc (HIV-1 Q151Mc/K70R; Q151Mc/K70R vs Q151Mc): (0.8) fold
- EC50 (HIV-1 Q151Mc): 40 ± 3 nM
- EC50 (HIV-1 K70Q): 30 ± 3 nM
- EC50 (HIV-1 K70N; Human immunodeficiency virus 1, MAGIC-5, K70N): 20 ± 3 nM
- Fold increase in EC50 compared to HIV-1 WT (HIV-1 K70N; K70N vs WT): (1) fold
- EC50 (HIV-1 Q151Mc/K70N; Human immunodeficiency virus 1, MAGIC-5, Q151Mc/K70N): 60 ± 4 nM
- Fold increase in EC50 compared to HIV-1 Q151Mc (HIV-1 Q151Mc/K70N; Q151Mc/K70N vs Q151Mc): (1.5) fold
- EC50 (HIV-1 K70T; Human immunodeficiency virus 1, MAGIC-5, K70T): 20 ± 3 nM
- Fold increase in EC50 compared to HIV-1 WT (HIV-1 K70T; K70T vs WT): (1) fold
- EC50 (HIV-1 K70R; Human immunodeficiency virus 1, MAGIC-5, K70R): 20 ± 2 nM
- Fold increase in EC50 compared to HIV-1 WT (HIV-1 K70R; K70R vs WT): (1) fold
- EC50 (HIV-1 Q151Mc/K70Q; Human immunodeficiency virus 1, MAGIC-5, Q151Mc/K70Q): 200 ± 10 nM
- Resistance (fold less susceptible than WT HIV-1) (HIV-1 Q151Mc/K70Q; K70Q/Q151Mc vs WT HIV-1): 10 fold
- EC50 (HIV-1 K70E; Human immunodeficiency virus 1, MAGIC-5, K70E): 20 ± 3 nM
- Fold increase in EC50 compared to HIV-1 WT (HIV-1 K70E; K70E vs WT): (1) fold
- EC50 (HIV-1 Q151Mc/K70E; Human immunodeficiency virus 1, MAGIC-5, Q151Mc/K70E): 30 ± 1 nM
- Fold increase in EC50 compared to HIV-1 Q151Mc (HIV-1 Q151Mc/K70E; Q151Mc/K70E vs Q151Mc): (0.8) fold
- EC50 (HIV-1 K70G; Human immunodeficiency virus 1, MAGIC-5, K70G): 20 ± 3 nM
- Fold increase in EC50 compared to HIV-1 WT (HIV-1 K70G; K70G vs WT): (1) fold
